Like-named read-outs stand apart in the source and are kept apart here.
Molecular target: T1, human glucagon-like peptide 1 receptor (Homo sapiens, UniProt P43220)
T1 construct: Full-length human glucagon-like peptide 1 receptor was stably expressed in CHO-K1 cells; expressed in transfected cells; host or cells: CHO-K1 (clone CHO-GLP1R-19)
Test: Cyclic AMP determination in CHO-K1 cells stably expressing the GLP-1 receptor (cAMP SPA)
Type: cell-based
Conditions: CHO-GLP1R-19 cells, read-out: EC50, stimulation of cAMP production
Procedure: CHO-GLP-1R-19 cells (2,500 in 100 μl of media) were plated into each well of a 96-well tissue culture microtiter plate and incubated in 5% CO2 atmosphere at 37° C., for 72 h. On the day of the assay, cells were washed once with 100 μl of PBS. […] After incubation at room temperature for 15-18 h, plates were counted 2 min each/well in a TopCount NXT(Packard).
The data obtained was processed in Excel-fit database. From a cyclic AMP standard curve, the amounts of released cAMP were determined and the % maximal activity was calculated and plotted against log compound concentration. The data was analyzed by nonlinear regression curve fit (sigmoidal dose) to determine the EC50 of the compounds.

T1 sequence (P43220 24-463): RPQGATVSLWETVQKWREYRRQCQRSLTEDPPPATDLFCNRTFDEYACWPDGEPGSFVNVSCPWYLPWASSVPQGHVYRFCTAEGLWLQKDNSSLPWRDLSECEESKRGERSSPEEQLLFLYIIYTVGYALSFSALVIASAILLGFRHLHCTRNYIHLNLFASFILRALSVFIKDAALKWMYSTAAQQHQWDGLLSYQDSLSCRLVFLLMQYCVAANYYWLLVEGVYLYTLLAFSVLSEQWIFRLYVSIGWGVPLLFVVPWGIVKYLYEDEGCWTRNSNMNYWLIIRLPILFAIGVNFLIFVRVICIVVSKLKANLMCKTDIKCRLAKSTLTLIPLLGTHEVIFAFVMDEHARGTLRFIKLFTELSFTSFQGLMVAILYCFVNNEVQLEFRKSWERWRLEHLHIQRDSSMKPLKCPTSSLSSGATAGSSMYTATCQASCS

Row | EC50 (same assay) | EC50 (determined as in Example 13) | SMILES
1 | > 1000 µM |  | C[C@H](NC(=O)[C@@H](N)Cc1c[nH]cn1)C(=O)N[C@@H](CCC(=O)O)C(=O)NCC(=O)N[C@H](C(=O)N[C@@H](Cc1ccccc1)C(=O)N[C@H](C(=O)N[C@@H](CO)C(=O)N[C@@H](CC(=O)O)C(N)=O)[C@@H](C)O)[C@@H](C)O
2 |  | 1.1 µM | C[C@H](NC(=O)[C@@H](N)Cc1cnc[nH]1)C(=O)N[C@@H](CCC(=O)O)C(=O)NCC(=O)N[C@H](C(=O)N[C@@H](Cc1ccccc1)C(=O)N[C@H](C(=O)N[C@@H](CO)C(=O)N[C@@H](CC(=O)O)C(=O)N[C@@H](Cc1ccc(-c2ccccc2)cc1)C(=O)N[C@@H](Cc1ccc(-c2ccccc2)cc1)C(N)=O)[C@@H](C)O)[C@@H](C)O [GLP-1 11-mer peptide analog, His-Ala-Clu-Gly-Thr-Phe-Thr-Ser-Asp-Bip-Bip-NH2]
